Laboratory results reported in patent US20250236609A1, “VPS34 INHIBITORS AND METHODS OF USE THEREOF” (Deciphera Pharmaceuticals, LLC, priority 2023, published 2025).

Target: VPS34 (Homo sapiens (Human), UniProt Q8NEB9)
Assay: Biochemical Assay for VPS34 (ADP-Glo kinase activity assay)
Details: 25 nM VPS34, 1 mM ATP, 1-hour incubation at 37° C.; read-out: VPS34 (Inhibition of biochemical activity of VPS34, IC50)
Method: Activity of VPS34 kinase was determined using an ADP-Glo kinase activity assay (Promega Corp). Assays were conducted in 384-well plates (5 μL assay volume) using 25 nM VPS34 (ThermoFisher Scientific), […] PI:3PS Lipid Kinase Substrate (Promega Corp.), and 1 mM ATP in kinase buffer. Inhibition of VPS34 was measured by adding serial diluted test compound (final assay concentration of 0.1% DMSO) followed by a 1-hour incubation at 37° C. ADP-Glo reagent was then added ([…]) followed by a 40 min incubation at rt. Kinase detection reagent was then added ([…]) and followed by a 60 min incubation at rt. Luminescence was then detected. The RLU at each compound concentration of was converted to percent inhibition using controls (i.e., reaction with no test compound and reaction with a known inhibitor) and IC50 values were calculated by fitting a four-parameter sigmoidal curve to the data using GeneData Screener software.
VPS34 Protein Sequence (Full Length with GST Tag)

Sequence of VPS34 (Q8NEB9 other isoform, or with tags, fused parts or gaps): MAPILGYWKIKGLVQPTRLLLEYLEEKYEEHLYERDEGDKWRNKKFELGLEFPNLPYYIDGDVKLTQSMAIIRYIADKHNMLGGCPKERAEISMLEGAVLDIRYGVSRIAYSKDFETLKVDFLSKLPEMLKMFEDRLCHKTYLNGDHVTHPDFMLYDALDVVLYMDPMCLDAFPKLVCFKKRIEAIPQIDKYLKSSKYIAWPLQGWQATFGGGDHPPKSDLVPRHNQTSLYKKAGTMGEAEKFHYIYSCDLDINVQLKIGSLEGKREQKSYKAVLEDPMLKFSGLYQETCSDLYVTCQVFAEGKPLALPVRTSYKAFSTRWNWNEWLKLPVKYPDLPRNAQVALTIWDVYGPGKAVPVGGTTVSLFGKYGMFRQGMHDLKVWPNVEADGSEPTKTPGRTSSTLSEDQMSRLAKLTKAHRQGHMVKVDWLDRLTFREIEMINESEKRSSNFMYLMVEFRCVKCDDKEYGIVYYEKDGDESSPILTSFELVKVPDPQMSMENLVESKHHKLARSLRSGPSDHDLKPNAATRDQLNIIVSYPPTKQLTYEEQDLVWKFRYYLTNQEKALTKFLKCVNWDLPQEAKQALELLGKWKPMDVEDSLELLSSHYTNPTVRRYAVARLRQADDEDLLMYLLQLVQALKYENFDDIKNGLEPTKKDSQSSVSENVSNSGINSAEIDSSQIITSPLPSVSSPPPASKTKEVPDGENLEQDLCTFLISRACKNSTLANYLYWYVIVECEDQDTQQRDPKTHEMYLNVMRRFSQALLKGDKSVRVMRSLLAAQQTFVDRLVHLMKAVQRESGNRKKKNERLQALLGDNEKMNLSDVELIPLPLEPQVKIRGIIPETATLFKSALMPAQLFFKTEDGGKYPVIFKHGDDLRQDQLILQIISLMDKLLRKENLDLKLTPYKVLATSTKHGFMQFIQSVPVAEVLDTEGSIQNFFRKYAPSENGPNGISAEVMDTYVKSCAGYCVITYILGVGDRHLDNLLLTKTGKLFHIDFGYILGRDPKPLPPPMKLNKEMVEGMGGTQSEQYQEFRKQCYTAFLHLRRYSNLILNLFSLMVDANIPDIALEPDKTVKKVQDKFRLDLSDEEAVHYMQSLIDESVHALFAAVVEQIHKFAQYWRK

Row | SMILES | IC50 [nM]
1 | COC(=O)Nc1cc(-c2cc(-c3cccnc3C3CC3)[nH]c(=O)c2)c(C)cn1 [Example 70] | 1000 to 10000
2 | Cc1cnc(N)cc1-c1cc(-c2cccnc2C(F)(F)F)[nH]c(=O)c1 [Example 55] | 1000 to 10000
3 | COC(=O)Nc1cc(-c2cc(-c3cccnc3C(F)(F)F)[nH]c(=O)c2)c(Cl)cn1 [Example 51] | 1000 to 10000
4 | Cc1cncc(Nc2cc(-c3cc(N4CCCC[C@@H]4C(F)(F)F)[nH]c(=O)c3)c(C)cn2)n1 [Example 2, (R)-5′-methyl-2′-((6-methylpyrazin-2-yl)amino)-6-(2-(trifluoromethyl)piperidin-1-yl)-[4,4′-bipyridin]-2(1H)-one] | ≤ 100
5 | CNC(=O)Nc1cc(-c2cc(-c3cccnc3C(F)(F)F)[nH]c(=O)c2)c(C)cn1 [Example 52] | 1000 to 10000
6 | CNCCS(=O)(=O)Nc1ccc(-c2cc(-c3cc(NC(=O)C4CC4)ncc3C)cc(=O)[nH]2)c(C)c1 [Example 66] | 100 to 500
7 | COC(=O)Nc1cc(-c2cc(N3CCN(S(=O)(=O)CCN(C)C)C[C@@H]3C(F)(F)F)[nH]c(=O)c2)c(C)cn1 [Example 32] | 100 to 500
8 | Cc1cnc(NC(=O)c2cnn(C)c2)cc1-c1cc(-c2cccnc2C(F)(F)F)[nH]c(=O)c1 [Example 68] | 1000 to 10000
9 | Cc1cnc(Nc2nnn(C)n2)cc1-c1cc(N2CCCC[C@@H]2C(F)(F)F)[nH]c(=O)c1 [Example 43] | 100 to 500
10 | COC(=O)Nc1ncc(C)c(-c2cc(N3CCCC[C@@H]3C(F)(F)F)[nH]c(=O)c2)n1 [Example 8] | 100 to 500
11 | Cc1cnc(Nc2ncn(C)n2)cc1-c1cc(N2CCCC[C@@H]2C(F)(F)F)[nH]c(=O)c1 [Example 42] | ≤ 100
12 | COC(=O)Nc1cc(-c2cc(-c3cccnc3C(F)(F)F)[nH]c(=O)c2)c(C2CC2)cn1 [Example 11] | 1000 to 10000
13 | Cc1cnc(NC(=O)[C@@H]2CCN(C)C2)cc1-c1cc(N2CCCC[C@@H]2C(F)(F)F)[nH]c(=O)c1 [Example 65] | 1000 to 10000
14 | Cc1cnc(NC2COC2)cc1-c1cc(N2CCCC[C@@H]2C(F)(F)F)[nH]c(=O)c1 [Example 56] | 1000 to 10000
15 | Cc1cnc(NC(=O)NC2CC2)cc1-c1cc(N2CCCC[C@@H]2C(F)(F)F)[nH]c(=O)c1 [Example 59] | 1000 to 10000
16 | Cc1cnc(Nc2cnn(C)n2)cc1-c1cc(N2CCCC[C@@H]2C(F)(F)F)[nH]c(=O)c1 [Example 41] | 100 to 500
17 | Cc1cnc(NC(=O)c2cnn(C)c2)cc1-c1cc(N2CCCC[C@@H]2C(F)(F)F)[nH]c(=O)c1 [Example 31] | 500 to 1000

Row | SMILES | IC50 [nM]
18 | COC(=O)Nc1cc(-c2cc(-c3cccnc3C(F)(F)F)[nH]c(=O)c2)c(CF)cn1 [Example 50] | 1000 to 10000
19 | COC(=O)Nc1cc(-c2cc(N3CCOC[C@H]3C(F)(F)F)[nH]c(=O)c2)c(C)cn1 [Example 36] | 1000 to 10000
20 | Cc1cnc(Nc2cn(C)nn2)cc1-c1cc(N2CCCC[C@@H]2C(F)(F)F)[nH]c(=O)c1 [Example 39] | 500 to 1000
21 | Cc1cnc(NC(=O)OC2CNC2)cc1-c1cc(N2CCCC[C@@H]2C(F)(F)F)[nH]c(=O)c1 [Example 54] | 1000 to 10000
22 | Cc1cnc(Nc2cnn(C)c2)cc1-c1cc(-c2cccnc2C(F)(F)F)[nH]c(=O)c1 [Example 33] | 500 to 1000
23 | Cc1cnnc(Nc2cc(-c3cc(N4CCCC[C@@H]4C(F)(F)F)[nH]c(=O)c3)c(C)cn2)c1 [Example 40] | 500 to 1000
24 | CNCCC(=O)N1CCN(c2cc(-c3cc(NC(=O)OC)ncc3C)cc(=O)[nH]2)[C@@H](C)C1 [Example 60] | 1000 to 10000
25 | Cc1cnc(NC(=O)CN(C)C)cc1-c1cc(N2CCCC[C@@H]2C(F)(F)F)[nH]c(=O)c1 [Example 19] | 1000 to 10000
26 | Cc1cnc(N)cc1-c1cc(N2CCCC[C@@H]2C(F)(F)F)[nH]c(=O)c1 [Example 23] | 1000 to 10000
27 | Cc1cnc(NC(=O)C2COC2)cc1-c1cc(N2CCCC[C@@H]2C(F)(F)F)[nH]c(=O)c1 [Example 62] | 1000 to 10000
28 | COC(=O)Nc1cc(-c2cc(N3CCN(S(=O)(=O)CCN(C)C)C[C@@H]3C)[nH]c(=O)c2)c(C)cn1 [Example 34] | ≤ 100
29 | CNCCC(=O)N1CCN(c2cc(-c3cc(NC(=O)OC)ncc3C)cc(=O)[nH]2)[C@@H](C(F)(F)F)C1 [Example 58] | 1000 to 10000
30 | CNc1cc(-c2cc(N3CCCC[C@@H]3C(F)(F)F)[nH]c(=O)c2)c(C)cn1 [Example 53] | 1000 to 10000
31 | COC[C@H]1CCCN1c1cc(-c2cc(NC(=O)OC)ncc2C)cc(=O)[nH]1 [Example 67] | 1000 to 10000
32 | Cc1cnccc1-c1cc(N2CCCC[C@@H]2C(F)(F)F)[nH]c(=O)c1 [Example 13] | 1000 to 10000
33 | COC(=O)Nc1cc(-c2cc(N3CCN(C(=O)CCN(C)C)C[C@@H]3C(F)(F)F)[nH]c(=O)c2)c(C)cn1 [Example 61] | 1000 to 10000
34 | CNCC(=O)Nc1cc(-c2cc(-c3cccnc3C(F)(F)F)[nH]c(=O)c2)c(C)cn1 [Example 64] | 1000 to 10000

More lines, now with the values ahead:

Row | IC50 [nM] | SMILES
35 | ≤ 100 | Cc1cnc(NC(=O)C2CC2)cc1-c1cc(N2CCN(S(=O)(=O)C3CC3)C[C@@H]2C)[nH]c(=O)c1 [Example 82]
36 | 1000 to 10000 | COCCC(=O)N1CCN(c2cc(-c3cc(NC(=O)C4CC4)ncc3C)cc(=O)[nH]2)[C@@H](C)C1 [Example 95]
37 | 1000 to 10000 | Cc1cnc(NC(=O)C2CC2)cc1-c1cc(N2CCN(C(=O)c3cccnc3)C[C@@H]2C)[nH]c(=O)c1 [Example 94]
38 | 100 to 500 | Cc1cnc(NC(=O)C2CC2)cc1-c1cc(NS(=O)(=O)c2ccc(F)cc2F)[nH]c(=O)c1 [compound 97]
39 | 1000 to 10000 | COc1ccc(C(=O)N2CCN(c3cc(-c4cc(NC(=O)C5CC5)ncc4C)cc(=O)[nH]3)[C@@H](C)C2)cc1 [Example 92]
40 | 100 to 500 | Cc1cnc(NC(=O)C2CC2)cc1-c1cc(N2CCN(S(=O)(=O)c3cc(F)ccc3F)C[C@@H]2C)[nH]c(=O)c1 [Example 86]
41 | 1000 to 10000 | Cc1cnc(NC(=O)C2CC2)cc1-c1cc(N2CCN(C(=O)c3ccc(F)cc3)C[C@@H]2C)[nH]c(=O)c1 [Example 88]
42 | 100 to 500 | Cc1nccc(Nc2cc(-c3cc(NS(=O)(=O)c4ccc(F)cc4F)[nH]c(=O)c3)c(C)cn2)n1 [Example 96, 2,4-difluoro-N-(5′-methyl-2′-((2-methylpyrimidin-4-yl)amino)-6-oxo-1,6-dihydro-[4,4′-bipyridin]-2-yl)benzenesulfonamide]
43 | 1000 to 10000 | Cc1cnc(Nc2ccn(C)n2)cc1-c1cc(N2CCCC[C@@H]2C(F)(F)F)[nH]c(=O)c1 [Example 71]
44 | 1000 to 10000 | Cc1nc(Nc2cc(-c3cc(N4CCCC[C@@H]4C(F)(F)F)[nH]c(=O)c3)c(C)cn2)no1 [Example 80]
45 | 1000 to 10000 | Cc1cnc(NC(=O)C2CC2)cc1-c1cc(N2CCN(C(=O)CC3CC3)C[C@@H]2C)[nH]c(=O)c1 [Example 93]
46 | 1000 to 10000 | CNCCC(=O)Nc1cc(-c2cc(-c3cccnc3C(F)(F)F)[nH]c(=O)c2)c(C)cn1 [Example 73]
47 | ≤ 100 | Cc1cnc(NC(=O)C2CC2)cc1-c1cc(N2CCN(S(=O)(=O)c3cnn(C)c3)C[C@@H]2C)[nH]c(=O)c1 [Example 84]
48 | ≤ 100 | Cc1ccnc(Nc2cc(-c3cc(N4CCCC[C@@H]4C(F)(F)F)[nH]c(=O)c3)c(C)cn2)n1 [Example 72]
49 | 1000 to 10000 | Cc1cnc(NC(=O)c2cnn(C3CNC3)c2)cc1-c1cc(N2CCCC[C@@H]2C(F)(F)F)[nH]c(=O)c1 [Example 74]
50 | ≤ 100 | Cc1cnc(NC(=O)C2CC2)cc1-c1cc(N2CCN(S(=O)(=O)CC3CC3)C[C@@H]2C)[nH]c(=O)c1 [Example 85]
